Legend:
[1] = biological target: T1, CB1 receptor (Homo sapiens, UniProt P21554); type: cell-based; conditions: data not shown
[2] = biological target: T1, CB1 receptor; type: binding; conditions: data not shown
[3] = biological target: T1, CB1 receptor; experiment: GTP-γ-S assay of compounds 3 and 4, preparation not stated, data not shown; type: biochemical
[4] = biological target: human CB2 receptor (Homo sapiens, UniProt P34972); experiment: Competitive displacement binding vs [3H]CP55,940 in hCB2 membranes; conditions: read-out: Displacement vs. 3H-CP55,940: Ki (nM) in hCB2; Table 2
Sequence of human CB2 receptor (P34972 whole entry): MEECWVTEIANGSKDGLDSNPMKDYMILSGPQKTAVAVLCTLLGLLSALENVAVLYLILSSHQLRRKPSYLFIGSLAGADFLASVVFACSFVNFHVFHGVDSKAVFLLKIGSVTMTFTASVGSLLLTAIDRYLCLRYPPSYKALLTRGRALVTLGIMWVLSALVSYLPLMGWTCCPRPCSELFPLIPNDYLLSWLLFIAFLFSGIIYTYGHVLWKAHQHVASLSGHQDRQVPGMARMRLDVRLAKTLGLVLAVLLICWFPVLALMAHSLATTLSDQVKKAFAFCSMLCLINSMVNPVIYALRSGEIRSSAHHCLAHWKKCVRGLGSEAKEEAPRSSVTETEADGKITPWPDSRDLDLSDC

[5] = biological target: T1, CB1 receptor; experiment: Competitive displacement binding vs [3H]CP55,940 in hCB1 membranes; conditions: both radioligands

T1 sequence (P21554 whole entry): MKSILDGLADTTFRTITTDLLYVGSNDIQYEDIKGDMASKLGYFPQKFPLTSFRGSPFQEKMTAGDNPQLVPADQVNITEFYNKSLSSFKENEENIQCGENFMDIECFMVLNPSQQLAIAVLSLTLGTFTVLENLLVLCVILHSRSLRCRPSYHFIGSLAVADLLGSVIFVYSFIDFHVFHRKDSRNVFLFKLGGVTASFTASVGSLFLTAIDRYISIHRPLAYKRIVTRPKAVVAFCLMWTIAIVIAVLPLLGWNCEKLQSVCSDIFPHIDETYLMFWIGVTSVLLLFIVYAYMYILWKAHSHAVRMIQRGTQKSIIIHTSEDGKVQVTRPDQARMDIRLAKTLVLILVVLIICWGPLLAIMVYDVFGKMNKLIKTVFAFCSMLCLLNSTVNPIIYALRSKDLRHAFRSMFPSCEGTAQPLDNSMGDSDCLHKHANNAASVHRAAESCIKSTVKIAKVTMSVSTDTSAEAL

| SMILES | Activity in calcium assay [1] | Affinity in radiolabeled binding [2] | Activity in GTP-γ-S assay [3] | Ki [4] | other results |
| --- | --- | --- | --- | --- | --- |
| Cc1c(C(=O)NCCCCCCCCCN(C)CCCCCCCCCNC(=O)c2nn(-c3ccc(Cl)cc3Cl)c(-c3ccc(Cl)cc3)c2C)nn(-c2ccc(Cl)cc2Cl)c1-c1ccc(Cl)cc1 [Compound 6c, N,N′-[(methylimino)dinonane-9,1-diyl]bis[5-(4-chlorophenyl)-1-(2,4-dichlorophenyl)-4-methyl-1H-pyrazole-3-carboxamide]] | – | – | – | > 2500 nM | – |
| Cc1c(C(=O)NCCCCCCCNCCCCCCCNC(=O)c2nn(-c3ccc(Cl)cc3Cl)c(-c3ccc(Cl)cc3)c2C)nn(-c2ccc(Cl)cc2Cl)c1-c1ccc(Cl)cc1 [Compound 5d, N,N′-(iminodiheptane-7,1-diyl)bis[5-(4-chlorophenyl)-1-(2,4-dichlorophenyl)-4-methyl-1H-pyrazole-3-carboxamide]] | – | – | – | – | Affinity higher than the corresponding monovalent control (7d) [5]: ~4 fold |
| Cc1c(C(=O)NCC(=O)NCC(=O)NCCN)nn(-c2ccc(Cl)cc2Cl)c1-c1ccc(Cl)cc1 [Compound 4, N-{[5-(4-chlorophenyl)-1-(2,4-dichlorophenyl)-4-methyl-1H-pyrazol-3-yl]carbonyl}glycyl-N-(2-aminoethyl)glycinamide] | inactive | low affinity | inactive | – | – |

The next lines start with results.

| Activity in calcium assay [1] | Affinity in radiolabeled binding [2] | Activity in GTP-γ-S assay [3] | Ki [4] | SMILES | other results |
| --- | --- | --- | --- | --- | --- |
| inactive | low affinity | inactive | – | Cc1c(C(=O)NCCOCCOCCOCCNC(=O)c2nn(-c3ccc(Cl)cc3Cl)c(-c3ccc(Cl)cc3)c2C)nn(-c2ccc(Cl)cc2Cl)c1-c1ccc(Cl)cc1 [Compound 3, 5-(4-chlorophenyl)-N-{13-[5-(4-chlorophenyl)-1-(2,4-dichlorophenyl)-4-methyl-1H-pyrazol-3-yl]-13-oxo-3,6,9-trioxa-12-azatridec-1-yl}-1-(2,4-dichlorophenyl)-4-methyl-1H-pyrazole-3-carboxamide] | – |
| – | – | – | > 2500 nM | Cc1c(C(=O)NCCCCCCCCCCCN(C)CCCCCCCCCCCNC(=O)c2nn(-c3ccc(Cl)cc3Cl)c(-c3ccc(Cl)cc3)c2C)nn(-c2ccc(Cl)cc2Cl)c1-c1ccc(Cl)cc1 [Compound 6d, N,N′-[(methylimino)diundecane-11,1-diyl]bis[5-(4-chlorophenyl)-1-(2,4-dichlorophenyl)-4-methyl-1H-pyrazole-3-carboxamide]] | – |
| – | – | – | > 2500 nM | Cc1c(C(=O)NCCCCCN(C)CCCCCN)nn(-c2ccc(Cl)cc2Cl)c1-c1ccc(Cl)cc1 [Compound 8a, N-{5-[(5-aminopentyl)(methyl)amino]pentyl}-5-(4-chlorophenyl)-1-(2,4-dichlorophenyl)-4-methyl-1H-pyrazole-3-carboxamide] | – |

Reference: paper PMC3076737 (Journal of medicinal chemistry, 2010)
